Data set [1] concerns Candida albicans. Nature of the data set: Antifungal activity against azole-resistant Candida albicans 4108 after 48 hrs by spectrophotometry-based serial microdilution method. In kind it is functional. As to conditions: Candida albicans, 4108, 48 h.
Data set [2] deals with Candida albicans. Nature of the data set: Antifungal activity against Candida albicans 0304103 assessed as inhibition of yeast to hypha morphological transition at 8 ug/ml after 4 hrs by differential interference contrast microscopic analysis relative to control. In kind it is functional. To be noted: Candida albicans, 0304103, 4 h.
Data set [3] concerns Candida albicans. Nature of the data set: Inhibition of yeast to hypha transition in azole resistant Candida albicans 0304103 assessed as down regulation of TEC1 gene expression at 32 ug /ml after 16 hrs by SYBR Green I dye based RT-PCR analysis. In kind it is functional, organism-based.
A short description of data set [4]: Selectivity index, ratio of IC50 for human A549 cells to MIC80 for azole-resistant Candida albicans 4108. The format is toxicity.
Data set [5] concerns Candida albicans. Nature of the data set: Antifungal activity against azole-resistant Candida albicans 0304103 infected in ICR mouse assessed as reduction in fungal burden in kidney at 20 mg/kg, po qd for 5 days measured 24 hrs post-last dose. In kind it is functional, organism-based.
The nature of data set [6]: Selectivity index, ratio of IC50 for HUVEC to MIC80 for azole-resistant Candida albicans 7781. The format is toxicity. As to conditions: human.
For data set [7], the system named is A549. Nature of the data set: Cytotoxicity against human A549 cells assessed as reduction in cell viability after 48 hrs by CCK-8 assay based spectrophotometric analysis. As to conditions: A549, 48 h.
Data set [8] concerns Candida albicans. Nature of the data set: Antifungal activity against azole-resistant Candida albicans 7781 after 48 hrs by spectrophotometry-based serial microdilution method. To be noted: Candida albicans, 7781, 48 h. The format is functional.
The nature of data set [9]: Selectivity index, ratio of IC50 for HUVEC to MIC80 for azole-resistant Candida albicans 0304103. The format is toxicity. To be noted: human.
Data set [10] relates to Candida albicans. Nature of the data set: Antifungal activity against azole-resistant Candida albicans 0304103 infected in ICR mouse assessed as inhibition of fungal infection in kidney at 20 mg/kg, ip qd for 5 days and measured on day 6 by periodic acid schiff staining-based histological analysis. In kind it is functional, organism-based.
The target in data set [11] is T1, Lanosterol 14-alpha demethylase (Candida albicans (strain SC5314 / ATCC MYA-2876) (Yeast), UniProt P10613). Nature of the data set: Inhibition of CYP51 in azole-resistant Candida albicans 0304103 assessed as reduction in ERG11 gene expression at 32 ug/ml after 16 hrs by SYBR Green-1 dye based RT-PCR analysis. The arrangement: species or system 304103.
T1 sequence (P10613 whole entry): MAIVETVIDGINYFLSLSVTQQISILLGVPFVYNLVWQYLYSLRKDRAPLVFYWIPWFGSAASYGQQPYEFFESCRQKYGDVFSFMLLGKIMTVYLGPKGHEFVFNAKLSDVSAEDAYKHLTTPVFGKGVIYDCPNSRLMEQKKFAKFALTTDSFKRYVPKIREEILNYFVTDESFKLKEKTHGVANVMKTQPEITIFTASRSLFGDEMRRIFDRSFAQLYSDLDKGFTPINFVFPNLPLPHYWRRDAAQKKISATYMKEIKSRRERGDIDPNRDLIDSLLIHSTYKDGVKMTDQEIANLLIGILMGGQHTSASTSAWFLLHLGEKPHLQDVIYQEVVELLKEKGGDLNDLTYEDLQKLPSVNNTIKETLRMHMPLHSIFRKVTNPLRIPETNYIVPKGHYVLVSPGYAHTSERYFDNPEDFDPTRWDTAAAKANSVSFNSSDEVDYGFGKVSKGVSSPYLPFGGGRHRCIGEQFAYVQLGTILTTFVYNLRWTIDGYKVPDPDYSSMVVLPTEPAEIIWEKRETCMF
The subject of data set [12] is Candida albicans. Nature of the data set: Inhibition of biofilm formation in azole resistant Candida albicans 0304103 assessed as down regulation of ALS3 gene expression at 32 ug /ml after 16 hrs by SYBR Green I dye based RT-PCR analysis. The format is functional, organism-based.
For data set [13], the system named is Candida albicans. Nature of the data set: Antifungal activity against azole-resistant Candida albicans 0304103 infected in ICR mouse assessed as mean survival time at 20 mg/kg, ip qd for 5 days (reference value: 10 days). The format is functional.
Data set [14] in a line: Selectivity index, ratio of IC50 for HUVEC to MIC80 for azole-resistant Candida albicans 4108. The format is toxicity. To be noted: human.
In data set [15] the test system is HUVEC. Nature of the data set: Cytotoxicity against HUVEC assessed as reduction in cell viability after 48 hrs by CCK-8 assay based spectrophotometric analysis. As to conditions: Homo sapiens.
For data set [16], the system named is Candida albicans. Nature of the data set: Antifungal activity against azole-resistant Candida albicans 0304103 infected in ICR mouse assessed as inhibition of filamentation at 20 mg/kg, ip qd for 5 days and measured on day 6 by periodic acid schiff staining-based histological analysis. In kind it is functional, organism-based.
For data set [17], the system named is Candida albicans. Nature of the data set: Fungistatic activity agaisnt Candida albicans 0304103 at 16 ug/ml preincubated for up to 24 hrs followed by replating on SDA plate and measured after 48 hrs by time kill assay. In kind it is functional, organism-based.
Data set [18] has as its target T1, Lanosterol 14-alpha demethylase. Nature of the data set: Inhibition of CYP51 in azole-resistant Candida albicans 0304103 assessed as obtusifoliol level at 0.5 ug/ml after 24 hrs by GC-MS analysis relative to control. Details: scale not given: the % may be the effect or the level left.
In data set [19] the test system is Candida albicans. Nature of the data set: Inhibition of HDAC in azole-resistant Candida albicans 0304103 assessed as reduction in MDR1 gene expression at 32 ug/ml after 16 hrs by SYBR Green-1 dye based RT-PCR analysis. To be noted: 304103.
Data set [20] has as its system Candida albicans. Nature of the data set: Antifungal activity against Candida albicans 0304103 assessed as inhibition of yeast to hypha morphological transition at 1 ug/ml after 4 hrs by differential interference contrast microscopic analysis relative to control. To be noted: Candida albicans, 0304103, 4 h. The format is functional.

Converted amounts (≈) assume the structure as drawn. The source made the active and inactive calls. The rule behind the calls is not given here.

For the molecule `CN(Cc1ccc(-n2cnn(CCCCc3ccc(C(=O)NO)cc3)c2=O)cc1)CC(O)(Cn1cncn1)c1ccc(F)cc1F` (racemic), the MIC80 came out at 8 µg/mL (≈ 12.6 µM) in data set [1] and 2 µg/mL (≈ 3.16 µM) in data set [8]. The inhibition at 8 µg/mL in data set [2] is 100%. For the same molecule, the inhibition entry in data set [3], in [10], in data set [12] and in data set [16] was “Active” in each case. For the same molecule, the selectivity ratio in data set [4], in data set [6], in [9] and in [14] was 2 to 16 in each case. The result in data set [5] was Active. Besides, the IC50 in data set [7] and in data set [15] was 6.7 to 25.4 µM each time. The “inhibition (INH)” value in data set [11] was “Active”. The MST in data set [13] turned out to be 20 days.
With `CN(Cc1ccc(OCCCOc2ccc(CC(=O)NO)cc2)cc1)CC(O)(Cn1cncn1)c1ccc(F)cc1F` (racemic), the MIC80 in data set [1] and in data set [8] was 0.5 µg/mL (≈ 0.86 µM) in each case. Moreover, the inhibition entry in data set [3], in data set [19], in [10], in data set [12] and in data set [16] was “Active” in each case. Further, the selectivity ratio in data set [4], in data set [6], in [9] and in data set [14] was 2 to 16 in each case. Besides, the result in [5] and in data set [17] was Active. Also, the IC50 in data set [7] and in [15] was 6.7 to 25.4 µM in each case. The Activity in [18] was found to be 7.59%. In data set [11], the “inhibition (INH)” value was “Active”. The inhibition at 1 µg/mL in [20] amounted to 100%. In data set [13], the MST stood at 16.5 days.

These data come from ChEMBL document CHEMBL4342527, “Discovery of Novel Fungal Lanosterol 14α-Demethylase (CYP51)/Histone Deacetylase Dual Inhibitors to Treat Azole-Resistant Candidiasis” (J Med Chem, 2020).
